Data reported in paper PMC7008132 (European journal of medicinal chemistry, 2019).

Legend:
[1] = Stability of compound in solution; format: physicochemical; settings: while in solution
[2] = biological target: human MDM2 (residues 1–118) (Homo sapiens, UniProt Q00987); assay: Fluorescence polarization; settings: fluorescence polarization assay; qualitative statement
[3] = tested on: p53-wild-type SJSA-1 and U-2 OS cells; settings: 24 h treatment, nutlin-3a 5 μM positive control
[4] = tested on: HCT 116 cells; assay: FITC-Annexin V/propidium iodide apoptosis analysis; settings: HCT 116 (p53-wild-type); 72 h; Annexin V/PI flow cytometry

Row | Structure (SMILES) | MDM2 binding activity in words [2] | other results
1 | CC(C)(C)NC(=O)C(c1c(C(=O)O)[nH]c2cc(Cl)ccc12)N(C=O)Cc1ccc(NCc2ccc(Br)cc2)cc1 (stereo not shown) [compound 8, 3-(2-(tert-butylamino)-1-(N-(4-((4-bromobenzyl)amino)benzyl)formamido)-2-oxoethyl)-6-chloro-1H-indole-2-carboxylic acid] |  | Stability in solution [1]: susceptible to degradation
2 | CC(C)(C)NC(=O)C(c1ccc(Cl)cc1)N(C=O)Cc1ccc(OCc2ccc(Cl)c(Cl)c2)cc1 (stereo not shown) [compound 10, N-(tert-butyl)-2-(4-chlorophenyl)-2-(N-(4-((3,4-dichlorobenzyl)oxy)benzyl) formamido)acetamide] | no binding | 
3 | CC(C)(C)NC(=O)C(c1cccc(Cl)c1)N(C=O)Cc1ccc(Cl)cc1 (stereo not shown) [compound 11, N-(tert-butyl)-2-(N-(4-chlorobenzyl)formamido)-2-(3-chlorophenyl)acetamide] | no binding | 
4 | COc1ccc(C2=N[C@@H](c3ccc(Cl)cc3)[C@@H](c3ccc(Cl)cc3)N2C(=O)N2CCNC(=O)C2)c(OC(C)C)c1 [Nutlin-3a] |  | Induction of MDM2 and p21 expression [3]: potent induction of MDM2 and p21
5 | CC(C)(C)NC(=O)[C@H](c1c(C(=O)O)[nH]c2cc(Cl)ccc12)N(C=O)Cc1ccc(OCc2ccccc2Br)cc1 [(−)-6m] |  | Induction of apoptosis [4]: induced apoptosis in p53-wild-type HCT 116 cells, comparable to nutlin-3a

Further lines, with some results ahead:

Row | MDM2 binding activity in words [2] | Structure (SMILES) | other results
6 | total loss of activity | Cn1c(C(=O)O)c(C(C(=O)NC(C)(C)C)N(C=O)Cc2ccc(OCc3ccccc3Br)cc2)c2ccc(Cl)cc21 (stereo not shown) [compound 9, 3-(1-(N-(4-((2-bromobenzyl)oxy)benzyl)formamido)-2-(tert-butylamino)-2-oxoethyl)-6-chloro-1-methyl-1H-indole-2-carboxylic acid] | 
7 | almost in loss of activity | O=CN(Cc1ccc(OCc2ccc(F)cc2)cc1)C(C(=O)NC12CC3CC(CC(C3)C1)C2)c1c(C(=O)O)[nH]c2cc(Cl)ccc12 (stereo not shown) [compound 17, 3-(2-((3s,5s,7s)-adamantan-1-ylamino)-1-(N-(4-((4-fluorobenzyl)oxy)benzyl)formamido)-2-oxoethyl)-6-chloro-1H-indole-2-carboxylic acid] | 
